Laboratory results from patent publication US11993591B2, “Chromen-4-one derivatives for the treatment and prophylaxis of hepatitis B virus disease” (Hoffmann-La Roche Inc., priority 2018, dated 2024).
pIC50: −log10 of the molar value.

Test system: HBV (extracellular HBsAg) in primary human hepatocytes
Experiment: Cryopreserved Primary Human Hepatocytes (PHH) HBV infection assay
Assay type: cell-based
Details: Hepatitis B virus, Hepatocyte, 216 h; extracellular HBsAg (CLIA), HBV-infected cryopreserved PHH, 9 days post-compound treatment
Experimental: This assay is used to confirm the anti-HBV effect of the compounds in HBV PHH infection assay. Cryopreserved PHH (BioreclamationIVT, Lot YJM) was thawed at 37° C. and gently transferred into pre-warmed InVitroGRO HT medium (BioreclamationIVT, Cat. S03317).
The mixture was centrifuged at 70 relative centrifugal force (RCF) for 3 mins at RT, and the supernatant was discarded. Pre-warmed InVitroGRO CP medium (BioreclamationIVT, Cat #S03316) was added to the cell pellet to gently re-suspend cells. The cells were seeded at the density of 5.8×10^4 cells per well to collagen I coated 96-well plate (Gibco, Cat. A1142803) with the InVitroGRO CP medium. All plates were incubated at 37° C. with 5% CO2 and 85% humidity.
At 20 hours after plating, the medium was changed to PHH culture medium (Dulbecco's Modified Eagle Medium (DMEM)/F12 (1:1) (Gibco, Cat. 11320-033), 10% fetal bovine serum (Gibco Cat. 10099141), 100 U/mL penicillin, 100 μg/mL streptomycin (Gibco, Cat. 151401-122), […] (Invitrogen Cat. PHG0311L), 20 ng/mL dexamethasone (Sigma, Cat. D4902) and 250 ng/mL human recombinant insulin (Gibco, Cat. 12585-014)). And the cells were incubated at 37° C. with 5% CO2 and 85% humidity for 4 hours. The medium was then changed to pre-warmed PHH culture medium containing 4% polyethylene glycol (PEG) MW8000 (Sigma, Cat. P1458-50ML) and 1% DMSO (Sigma, Cat. D2650). 5.8×10^6 genomic equivalents of HBV were added into the medium.
At 24 hours post-infection, the cells were gently washed with PBS and refreshed with PHH culture medium supplemented with 1% DMSO, and 0.25 mg/mL Matrix gel (Corning, Cat. 356237) at 200 μL per well. All plates were immediately placed in at 37° C. CO2 incubator. 24 hours later, serial dilutions of compounds made with DMSO were further diluted with the same culture medium (PHH culture medium supplemented with 1% DMSO and 0.25 mg/mL Matrix gel as described above) before they were added to the cells to reach desired final compound concentrations and 1% DMSO concentration. The medium containing the compounds were refreshed every three days.
At 9 days post-compound treatment, extracellular HBsAg level were measured with Chemiluminescence Immuno Assay (CLIA) kit (Autobio, HBsAg Quantitative CLIA). Extracellular HBV DNA was extracted by MagNA Pure 96 system (Roche) and then determined by quantitative PCR with the following primers and probe: […]
HBsAg IC50 and HBV DNA IC50 values were derived from the dose-response curve using 4 parameter logistic curve fit method.

| Compound | pIC50 |
| --- | --- |
| O=C(O)C1CC(OCCOc2ccc3c(c2)CCN(c2cc(=O)c4cccc(Cl)c4o2)C3)C1 (stereo not shown) [Example 36, 3-[2-[[2-(8-chloro-4-oxo-chromen-2-yl)-3,4-dihydro-1H-isoquinolin-6-yl]oxy]ethoxy]cyclobutanecarboxylic Acid] | 6.21 |
| O=C(c1cc(=O)c2cccc(Cl)c2o1)N1CCc2ccc(Cl)cc2C1 [Example 16, 8-Chloro-2-(7-chloro-3,4-dihydro-1H-isoquinoline-2-carbonyl)chromen-4-one] | 4.39 |
| O=C(Nc1ccc(Cl)cc1C(F)(F)F)c1cc(=O)c2cccc(Cl)c2o1 [Example 12, 8-chloro-N-(4-chloro-2-(trifluoromethyl)phenyl)-4-oxo-chromene-2-carboxamide] | 4.47 |
| O=C(Nc1ccc(OCCOC2CC(C(=O)O)C2)cc1C(F)(F)F)c1cc(=O)c2cccc(Cl)c2o1 (stereo not shown) [Example 5, 3-(2-(4-(8-chloro-4-oxo-chromene-2-carboxamido)-3-(trifluoromethyl)phenoxy)ethoxy)cyclobutanecarboxylic Acid] | 5.13 |
| Cc1cc(OCCOCC(=O)O)ccc1NC(=O)c1cc(=O)c2cccc(Cl)c2o1 [Example 19, 2-(2-(4-(8-chloro-4-oxo-chromene-2-carboxamido)-3-methylphenoxy)ethoxy)acetic Acid] | 4.50 |
| O=C(Nc1nnc(C(F)(F)F)s1)c1cc(=O)c2cccc(Cl)c2o1 [Example 6, 8-chloro-4-oxo-N-(5-(trifluoromethyl)-1,3,4-thiadiazol-2-yl)-chromene-2-carboxamide] | 5.02 |
| O=C(O)C1CC(OCCOc2ccc3c(c2)CN(c2cc(=O)c4cccc(Cl)c4o2)C3)C1 (stereo not shown) [Example 37, 3-[2-[2-(8-chloro-4-oxo-chromen-2-yl)isoindolin-5-yl]oxyethoxy]cyclobutanecarboxylic Acid] | 5.97 |
| Cc1cc(C(=O)O)ccc1NC(=O)c1cc(=O)c2cccc(Cl)c2o1 [Example 18, 4-(8-chloro-4-oxo-chromene-2-carboxamido)-3-methylbenzoic Acid] | 4.37 |
| COc1ccc2c(c1)CCN(C(=O)c1cc(=O)c3cccc(Cl)c3o1)C2 [Example 14, 8-Chloro-2-(6-methoxy-3,4-dihydro-1H-isoquinoline-2-carbonyl)chromen-4-one] | 4.44 |
| CC1c2ccc(OCCOC3CC(C(=O)O)C3)cc2CCN1c1cc(=O)c2cccc(Cl)c2o1 (stereo not shown) [Example 40, 3-[2-[[2-(8-chloro-4-oxo-chromen-2-yl)-1-methyl-3,4-dihydro-1H-isoquinolin-6-yl]oxy]ethoxy]cyclobutanecarboxylic Acid] | 4.46 |
| Cc1cc(Cl)ccc1NC(=O)c1cc(=O)c2cc(Cl)cc(Cl)c2o1 [Example 13, 6,8-dichloro-N-(4-chloro-2-methylphenyl)-4-oxo-chromene-2-carboxamide] | 4.44 |
| Cc1ccccc1NC(=O)c1cc(=O)c2cccc(Cl)c2o1 [Example 15, 8-chloro-4-oxo-N-(o-tolyl)-chromene-2-carboxamide] | 4.43 |
| Cc1cc(Br)cnc1NC(=O)c1cc(=O)c2cccc(Cl)c2o1 [Example 10, N-(5-bromo-3-methylpyridin-2-yl)-8-chloro-4-oxo-chromene-2-carboxamide] | 4.61 |
| O=C(NCc1ccc(Cl)cc1Cl)c1cc(=O)c2cccc(Cl)c2o1 [Example 9, 8-chloro-N-(2,4-dichlorobenzyl)-4-oxo-chromene-2-carboxamide] | 4.85 |
| O=C(O)c1cccc(CN2CCN(c3cc(=O)c4cccc(Cl)c4o3)CC2)c1 [Example 38, 3-((4-(8-chloro-4-oxo-chromen-2-yl)piperazin-1-yl)methyl)benzoic Acid] | 4.41 |
| O=C(Nc1ccc(OCCOC2CC(C(=O)O)C2)cc1F)c1cc(=O)c2cccc(Cl)c2o1 (stereo not shown) [Example 1, 3-(2-(4-(8-chloro-4-oxo-chromene-2-carboxamido)-3-fluorophenoxy)ethoxy)cyclobutanecarboxylic Acid] | 5.54 |
